Drawing on patent US9624217B2, “Dihydropyrrolopyridine inhibitors of ROR-gamma” (Vitae Pharmaceuticals, Inc., priority 2014, dated 2017), this text covers IC50 and Ki for 42 compounds.

One assay has as its target full-length RORγt (Homo sapiens (Human), UniProt P51449). The experiment in a line: RORγt 5×RORE Assay in Jurkat Cells (Assay 2). The class given is cell-based. The note with it: secreted Nanoluc luciferase 5×RORE reporter, 16-18 hrs, read-out: RORγt5X IC50 Range. As to the method: [formula] RORγt 5×RORE Assay in Jurkat Cells (Assay 2)
Compounds of the present invention were tested for RORγ inverse agonist activity in a cell-based, transcriptional activity assay. […] (Promega, Cat. #N1021) using KpnI and HindIII restriction sites. […] Luciferase activity in the conditioned supernatants was determined with NanoGlo® assay reagents (Promega, Cat. #N1130).

Assay [1] deals with recombinant RORγ Ligand Binding Domain (LBD) (Homo sapiens (Human), UniProt P51449). The experiment in a line: Radio-Ligand RORγ Binding Assay (Assay 1). The settings on record: SPA competition with 25-hydroxy [26,27-3H]-cholesterol, cell-free; read-out: RORγ Binding Ki Range. As to the method:
Radio-Ligand RORγ Binding Assay (Assay 1)
Compounds of the present invention were tested for ability to bind to RORγ in a cell-free competition assay with commercially available radio-ligand (RL), 25-hydroxy [26,27-^3H]-cholesterol (PerkinElmer, Cat. #NET674250UC), for a ligand binding site on a recombinant RORγ Ligand Binding Domain (LBD) protein expressed as a 6×His-Glutathione-S-Transferase (GST) fusion. […] The plate was shaken at 700 rpm for 20 min and incubated for 10 min at rt, after which 40 μL of poly-Lys YSi SPA beads (PerkinElmer, Cat. #RPNQ0010) were added to achieve 50 μg of the beads per well. The plate was incubated on an orbital shaker for 20 min and then for 10 min without agitation at rt. SPA signal for tritium beta radiation was registered on PerkinElmer Microbeta plate reader. […] The percent inhibition vs. concentration data were fit into a four-parameter model, and IC50 values were calculated from the fit as the concentrations corresponding to the inflection points on the dose-response curves.

Chain of recombinant RORγ Ligand Binding Domain (LBD) (P51449 269-508): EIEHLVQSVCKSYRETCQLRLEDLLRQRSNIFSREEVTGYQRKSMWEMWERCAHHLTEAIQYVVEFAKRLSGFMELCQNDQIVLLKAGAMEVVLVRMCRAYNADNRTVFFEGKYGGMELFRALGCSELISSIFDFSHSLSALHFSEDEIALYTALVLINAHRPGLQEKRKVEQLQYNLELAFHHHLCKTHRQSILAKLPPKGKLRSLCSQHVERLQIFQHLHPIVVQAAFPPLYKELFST
Chain of full-length RORγt (P51449 other isoform, or with tags, fused parts or gaps): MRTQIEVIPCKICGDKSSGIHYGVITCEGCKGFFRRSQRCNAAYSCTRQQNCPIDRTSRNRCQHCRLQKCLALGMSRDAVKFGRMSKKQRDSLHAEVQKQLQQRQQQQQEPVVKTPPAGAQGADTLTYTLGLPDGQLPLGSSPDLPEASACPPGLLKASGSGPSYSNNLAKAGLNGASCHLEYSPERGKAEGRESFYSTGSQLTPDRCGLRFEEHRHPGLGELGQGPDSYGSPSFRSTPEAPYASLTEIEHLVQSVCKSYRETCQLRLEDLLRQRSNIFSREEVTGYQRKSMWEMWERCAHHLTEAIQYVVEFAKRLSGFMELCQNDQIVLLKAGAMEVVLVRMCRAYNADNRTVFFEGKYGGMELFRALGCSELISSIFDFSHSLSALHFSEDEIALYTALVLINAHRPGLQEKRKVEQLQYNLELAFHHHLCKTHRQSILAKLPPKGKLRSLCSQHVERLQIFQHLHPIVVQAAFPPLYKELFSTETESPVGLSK

In general, IC50 refers to the concentration that inhibits the measured activity by half. On to `CCS(=O)(=O)c1ccc(CNC(=O)c2cnc3c(c2)CN(C(=O)OC(C)(C)C)[C@H]3C(C)C)cc1` [Compound 15, tert-butyl (S)-3-((4-(ethylsulfonyl)benzyl)carbamoyl)-7-isopropyl-5,7-dihydro-6H-pyrrolo[3,4-b]pyridine-6-carboxylate], for which, on full-length RORγt, the IC50 was over 1000 nM. What is called Ki is the dissociation constant of the complex between target and ligand, obtained from inhibition or displacement. On to `CC(C)[C@H]1c2ncc(C(=O)NCc3ccc(C(=O)O)cc3)cc2CN1Cc1ccc(C(F)(F)F)cc1` [Compound 147, (S)-4-((7-isopropyl-6-(4-(trifluoromethyl)benzyl)-6,7-dihydro-5H-pyrrolo[3,4-b]pyridine-3-carboxamido)methyl)benzoic acid], for which, in assay [1], the Ki lay within 100 to 1000 nM. Turning to `CC(C)[C@H]1c2ncc(C(=O)N[C@H]3c4ccccc4C[C@H]3O)cc2CN1Cc1ccc(C(F)(F)F)cc1` [Compound 130], the Ki in assay [1] is over 1000 nM.

Turning to `CC(C)[C@H]1c2ncc(C(=O)NCc3ccc(S(C)(=O)=O)cc3)cc2CN1Cc1ccc(Cl)cn1` [Compound 23], in assay [1], the Ki lay within 100 to 1000 nM. In the case of `CC(C)[C@H]1c2ncc(C(=O)NCC3CCS(=O)(=O)CC3)cc2CN1Cc1ccc(C(F)(F)F)cc1` [Compound 61], the inhibition constant (Ki) in assay [1] was over 1000 nM.

With `CC(=O)O[C@@H]1CN(C(C)=O)CC[C@H]1CNC(=O)c1cnc2c(c1)CN(Cc1ccc(C(F)(F)F)cc1)[C@H]2C(C)C` [Compound 157], in assay [1], the Ki is over 1000 nM. `CC(C)[C@H]1c2ncc(C(=O)NCC3CCN(C(=O)OC(C)(C)C)C3)cc2CN1Cc1ccc(C(F)(F)F)cc1` (stereo partly drawn) [Compound 74]: the Ki in assay [1] is over 1000 nM. Still for that read-out and setting: with `COC(=O)N1CCC(CNC(=O)c2cnc3c(c2)CN(Cc2ccc(C(F)(F)F)cc2)[C@H]3C(C)C)CC1` [Compound 110] the figure was over 1000 nM; with `CC(C)[C@H]1c2ncc(C(=O)NC[C@H]3CC[C@H](C(=O)O)CC3)cc2CN1Cc1ccc(C(F)(F)F)cc1` [Compound 148], over 1000 nM; with `CC(C)[C@H]1c2ncc(C(=O)NCC3(C(=O)O)CCOCC3)cc2CN1Cc1ccc(C(F)(F)F)cc1` [Compound 146], over 1000 nM. For the compound `CCS(=O)(=O)c1ccc(CC(=O)Nc2cnc3c(c2)CN(Cc2ccc(Cl)cc2)[C@H]3C(C)C)cc1` [Compound 56], the half-inhibitory concentration (IC50) on full-length RORγt was 100 to 1000 nM. For `COC(=O)c1ccc(CNC(=O)c2cnc3c(c2)CN(Cc2ccc(C(F)(F)F)cc2)[C@H]3C(C)C)nc1` [Compound 150], the Ki in assay [1] is over 1000 nM. For `CC(=O)N1CCC(CNC(=O)c2cnc3c(c2)CN(Cc2ccc(C(F)(F)F)cc2)[C@H]3C(C)C)CC1` [Compound 114], in assay [1], the Ki was over 1000 nM.

Take `CCS(=O)(=O)N1CC(CCNC(=O)c2cnc3c(c2)CN(Cc2ccc(C(F)(F)F)cc2)[C@H]3C(C)C)C1` [Compound 102]: the Ki in assay [1] was 100 to 1000 nM. For the compound `CC(C)[C@H]1c2ncc(C(=O)NCc3ccccn3)cc2CN1Cc1ccc(C(F)(F)F)cc1` [Compound 78], in assay [1], the Ki lay in the range of 100 to 1000 nM. Regarding `CCS(=O)(=O)N1CCC(CNC(=O)c2cnc3c(c2)CN(Cc2ccc(C(F)(F)F)cc2)[C@H]3C(C)C)C1` (stereo partly drawn) [Compound 106], the Ki in assay [1] was in the range of 100 to 1000 nM. Take `COC(=O)N1CCC(CNC(=O)c2cnc3c(c2)CN(Cc2ccc(C(F)(F)F)cc2)[C@H]3C(C)C)C1` (stereo partly drawn) [Compound 107]: in assay [1], the Ki lay in the range of 100 to 1000 nM. Take `CC(C)[C@H]1c2ncc(C(=O)NCCC3C(=O)Nc4ccc(Cl)cc43)cc2CN1Cc1ccc(C(F)(F)F)cc1` (stereo partly drawn) [Compound 121]: the Ki in assay [1] was over 1000 nM. For the compound `CC(C)[C@H]1c2ncc(C(=O)NCCC3CCOCC3)cc2CN1Cc1ccc(C(F)(F)F)cc1` [Compound 90], the Ki in assay [1] lay within 100 to 1000 nM. Consider `CC(C)[C@H]1c2ncc(C(=O)NCC(c3ccncc3)N(C)C)cc2CN1Cc1ccc(C(F)(F)F)cc1` (stereo partly drawn) [Compound 92], for which the Ki in assay [1] was over 1000 nM. On the same count and under the same terms, with `CC(C)[C@H]1c2ncc(C(=O)NC(Cc3cc(=O)[nH]c4ccccc34)C(=O)O)cc2CN1Cc1ccc(C(F)(F)F)cc1` (stereo partly drawn) [Compound 136] the figure was over 1000 nM. The same measure, in the same setting: the value for `CC(C)[C@H]1c2ncc(C(=O)NCc3ccccc3OCCN(C)C)cc2CN1Cc1ccc(C(F)(F)F)cc1` [Compound 98] was over 1000 nM; that for `CC(C)[C@H]1c2ncc(C(=O)NCc3ccccc3CN3CCN(C)CC3)cc2CN1Cc1ccc(C(F)(F)F)cc1` [Compound 81] was over 1000 nM; that for `CC(C)[C@H]1c2ncc(C(=O)NC3(CO)Cc4ccccc4C3)cc2CN1Cc1ccc(C(F)(F)F)cc1` [Compound 87] was over 1000 nM. `CC(C)[C@@H]1c2ncc(C(=O)NCc3ccc(S(C)(=O)=O)cc3)cc2CN1Cc1ccc(C#N)cc1` [Compound 19]: the Ki in assay [1] is over 1000 nM. On to `CC(C)[C@H]1c2ncc(C(=O)NCc3nnc4n3CCC4)cc2CN1Cc1ccc(C(F)(F)F)cc1` [Compound 94], for which the Ki in assay [1] was over 1000 nM. As to `CC(C)[C@H]1c2ncc(C(=O)NCCc3ccccn3)cc2CN1Cc1ccc(C(F)(F)F)cc1` [Compound 97], in assay [1], the Ki was over 1000 nM. For the compound `CC(C)[C@H]1c2ncc(C(=O)NCc3ccn(C)n3)cc2CN1Cc1ccc(C(F)(F)F)cc1` [Compound 82], in assay [1], the Ki is over 1000 nM. For `CC(C)[C@H]1c2ncc(C(=O)NCc3ccc(C(=O)O)cn3)cc2CN1Cc1ccc(C(F)(F)F)cc1` [Compound 151], the Ki in assay [1] lay in the range of 100 to 1000 nM. Turning to `CCS(=O)(=O)c1ccc(CNC(=O)c2cnc3c(c2)C(=O)N(C[C@H]2CC[C@H](C(F)(F)F)CC2)[C@H]3C(C)C)nc1` [Compound 47], in assay [1], the Ki is under 100 nM. With `CC(C)[C@H]1c2ncc(C(=O)NCc3ccncc3)cc2CN1Cc1ccc(C(F)(F)F)cc1` [Compound 115], the Ki in assay [1] lay in the range of 100 to 1000 nM. Still for that read-out and setting: with `CC(C)[C@H]1c2ncc(C(=O)NCCCN3CCCC3=O)cc2CN1Cc1ccc(C(F)(F)F)cc1` [Compound 79] the figure was over 1000 nM; with `CC(C)[C@H]1c2ncc(C(=O)NCC(c3cccnc3)N3CCOCC3)cc2CN1Cc1ccc(C(F)(F)F)cc1` (stereo partly drawn) [Compound 88], over 1000 nM; with `CC(C)[C@H]1c2ncc(C(=O)NC[C@H]3CC[C@H](C#N)CC3)cc2CN1Cc1ccc(C(F)(F)F)cc1` [Compound 129], 100 to 1000 nM. For `CC(C)[C@H]1c2ncc(C(=O)NCC3CCN(C(=O)CO)CC3)cc2CN1Cc1ccc(C(F)(F)F)cc1` [Compound 113], the Ki in assay [1] was in the range of 100 to 1000 nM.

`CC(C)[C@H]1c2ncc(C(=O)NCC(O)c3ccc(C(F)(F)F)cc3)cc2CN1Cc1ccc(C(F)(F)F)cc1` (stereo partly drawn) [Compound 70]: the Ki in assay [1] was over 1000 nM. In the case of `CC(C)[C@H]1c2ncc(C(=O)NCC3CN(C(=O)OC(C)(C)C)C3)cc2CN1Cc1ccc(C(F)(F)F)cc1` [Compound 68], in assay [1], the Ki was over 1000 nM. Regarding `CC(C)[C@H]1c2ncc(C(=O)NCC(F)F)cc2CN1Cc1ccc(C(F)(F)F)cc1` [Compound 124], the Ki in assay [1] is over 1000 nM. Regarding `COC(=O)[C@H]1CC[C@H](CNC(=O)c2cnc3c(c2)CN(Cc2ccc(C(F)(F)F)cc2)[C@H]3C(C)C)CC1` [Compound 75], the Ki in assay [1] is over 1000 nM.

For `CC(C)[C@H]1c2ncc(C(=O)N[C@H]3c4ccccc4C[C@H]3O)cc2CN1Cc1ccc(C(F)(F)F)cc1` [Compound 125], the Ki in assay [1] is over 1000 nM. Consider `CCS(=O)(=O)c1ccc(CNC(=O)c2cnc3c(c2)CN(Cc2ccc(C(F)(F)F)cc2)[C@H]3C(C)C)nn1` [Compound 159], for which the Ki in assay [1] is under 100 nM. As to `CC(C)[C@H]1c2ncc(C(=O)NC3(c4cnccn4)CC3)cc2CN1Cc1ccc(C(F)(F)F)cc1` [Compound 120], the Ki in assay [1] was over 1000 nM.
